Experiments:
EGFR (T790M/L858R) = biological target: T1, EGFR (T790M/L858R) (Homo sapiens, UniProt P00533, L858R/T790M); test: EGFR (T790M/L858R) kinase inhibitory activity (in vitro); format: biochemical; conditions: for IC50: recombinant human protein, ATP 1 μM, 120 minutes; for inhibitory activities for EGFR (L858R), EGFR (d746-750), EGFR (T790M/L858R) and EGFR (d746-750/T790M), in words: summary of Table 1, all four mutant kinases
T1 construct: purchased Carna Biosciences, Inc
Description: 1) Measurement of EGFR (T790M/L858R) Kinase Inhibitory Activity
The inhibitory activities of the compounds I-1, I-2, I-3, I-4, I-5, I-6, I-7, I-8, and I-9 for EGFR (T790M/L858R) kinase were measured.
The materials were as follows. The substrate peptide was a biotinylated peptide (biotin-EEPLYWSFPAKKK) synthesized by reference to the amino acid sequence of FL-Peptide 22 (a reagent for LabChip® Series; Caliper Life Sciences, Inc.). The EGFR (T790M/L858R) was a purified recombinant human EGFR (T790M/L858R) protein purchased from Carna Biosciences, Inc.
(§1) The measurement method was as follows. The compounds I-1, I-2, I-3, I-4, I-5, I-6, I-7, I-8, and I-9 were each dissolved in dimethylsulfoxide (DMSO), and then each serially diluted with DMSO. Next, the EGFR (T790M/L858R) protein, substrate peptide (final concentration: 250 nM), magnesium chloride (final concentration: 10 mM), manganese chloride (final concentration: 10 mM), ATP (final concentration: 1 μM), and the diluted DMSO solution of each compound (final concentration of DMSO: 2.5%) were added to a kinase reaction buffer (Carna Biosciences, Inc.), and the mixture was incubated at 25° C. for 120 minutes for kinase reaction. EDTA was added thereto to a final concentration of 24 mM to thereby terminate the reaction. Then, a detection solution containing europium (Eu)-labeled anti-phosphorylated tyrosine antibody PT66 (PerkinElmer) and SureLight APC-SA (PerkinElmer) was added, and the resulting mixture was allowed to stand at room temperature for 2 hours or more. Finally, the intensity of fluorescence under the excitation light with a wavelength of 337 nm was measured by a PHERAstar FS (BMG LABTECH) at two wavelengths of 620 nm and 665 nm. The level of phosphorylation of each test sample was calculated from the fluorescence intensity ratio of the two wavelengths in DMSO control and in the test sample, and the compound concentration at which phosphorylation was inhibited by 50% was determined as the IC50 value (nM) of each compound.

EGFR (d746-750/T790M) = biological target: T2, EGFR (d746-750/T790M) (Homo sapiens, UniProt P00533, DEL746-750/T790M); test: EGFR (d746-750/T790M) kinase inhibitory activity (in vitro); format: biochemical; conditions: recombinant human protein, ATP 1.5 μM
T2 construct: purchased Carna Biosciences, Inc
Description: as §1
2) Measurement of EGFR (d746-750/T790M) Kinase Inhibitory Activity
The inhibitory activities of the compounds I-1, I-2, I-3, I-4, I-5, I-6, I-7, I-8, and I-9 for EGFR (d746-750/T790M) kinase were measured.
(§2) The materials were as follows. The EGFR (d746-750/T790M) was a purified recombinant human EGFR (d746-750/T790M) protein purchased from Carna Biosciences, Inc. The final concentration of ATP was 1.5 μM. As for other conditions, the same materials and methods as those used in the measurement of EGFR (T790M/L858R) kinase inhibitory activity were used to determine the IC50 value (nM) of each compound.

EGFR (L858R) = biological target: T3, EGFR (L858R) (Homo sapiens, UniProt P00533, L858R); test: EGFR (L858R) kinase inhibitory activity (in vitro); format: biochemical; conditions: recombinant human protein, ATP 4 μM
T3 construct: purchased Carna Biosciences, Inc
Description: as §1
3) Measurement of EGFR (L858R) Kinase Inhibitory Activity
The inhibitory activities of the compounds I-1, I-2, I-3, I-4, I-5, I-6, I-7, I-8, and I-9 for EGFR (L858R) kinase were measured.
as §2, with “(L858R)” for “(d746-750/T790M)”, “4” for “1.5”

EGFR (d746-750) = biological target: T4, EGFR (d746-750) (Homo sapiens, UniProt P00533, DEL746-750); test: EGFR (d746-750) kinase inhibitory activity (in vitro); format: biochemical; conditions: recombinant human protein, ATP 5 μM, 90 minutes
T4 construct: purchased Carna Biosciences, Inc
Description: as §1
4) Measurement of EGFR (d746-750) Kinase Inhibitory Activity
The inhibitory activities of the compounds I-1, I-2, I-3, I-4, I-5, I-6, I-7, I-8, and I-9 for EGFR (d746-750) kinase activity were measured.
as §2, with “(d746-750)” for “(d746-750/T790M)”, “5” for “1.5”, “μM. The incubation time for the kinase reaction was 90 minutes.” for “μM.”

EGFR (WT) = biological target: T5, EGFR (WT) (Homo sapiens, UniProt P00533); test: EGFR (WT) kinase inhibitory activity (in vitro); format: biochemical; conditions: for IC50: cytoplasmic domain of human EGFR (WT), ATP 4.7 μM, substrate peptide 500 nM; for inhibitory activities for EGFR (WT) compared with the mutant EGFR proteins, in words: summary of Table 1
T5 construct: the cytoplasmic domain of human EGFR (WT); FLAG (N); made in house; host or cells: baculovirus expression system, insect Sf9 cells
Description: as §1
The inhibitory activities of the compounds I-1, I-2, I-3, I-4, I-5, I-6, I-7, I-8, and I-9 on EGFR (WT) kinase were measured.
The materials were as follows. As the EGFR (WT), the cytoplasmic domain of human EGFR (WT) in which a FLAG tag was fused to the N-terminus was expressed in a baculovirus expression system using insect Sf9 cells, and purified with anti-FLAG antibody agarose (Sigma-Aldrich). The final concentration of the substrate peptide was 500 nM, and the final concentration of ATP was 4.7 μM. As for other conditions, the same materials and methods as those used in the measurement of EGFR (T790M/L858R) kinase inhibitory activity were used to determine the IC50 value (nM) of each compound.

[1] = tested on: lung adenocarcinoma cell line NCI-H1975 expressing EGFR (T790M/L858R); test: Growth inhibitory activity, EGFR (T790M/L858R)-expressing cell line; format: cell-based, human; conditions: for GI50: Homo sapiens, NCI-H1975, 72 h, three days culture, CellTiter-Glo; for growth-inhibitory activities for EGFR (d746-750)-expressing and EGFR (T790M/L858R)-expressing cells, in words: summary of Table 2, NCI-H1975 and HCC827
Description: (§3) 1) A lung adenocarcinoma cell line NCI-H1975 expressing EGFR (T790M/L858R), 2) a lung adenocarcinoma cell line HCC827 expressing EGFR (d746-750), and 3) a human epidermoid carcinoma cell line A431 expressing EGFR (WT) were each suspended in the medium recommended by ATCC. The cell suspension was seeded in each well of a 384-well flat microplate or 96-well flat plate, and cultured in an incubator containing 5% carbon dioxide gas at 37° C. for one day. The compound of the present invention and the reference compound were dissolved in DMSO, and then the DMSO solution of each test compound was diluted with DMSO to a concentration 200 times higher than the final concentration. The diluted DMSO solution of the test compound was diluted with the medium used to suspend each cell line, and the diluted solution was added to each well of the cell culture plate so that the final concentration of DMSO was 0.5%. Then, the cells were cultured in an incubator containing 5% carbon dioxide gas at 37° C. for three days. The number of cells was measured at the time of initiation and termination of the culture by using a CellTiter-Glo Assay (produced by Promega) according to a protocol recommended by Promega. The cell growth inhibition rate was calculated by the following formula, and the concentration of the test compound at which the cell growth was inhibited by 50% (GI50 (nM)) was determined. Growth inhibition rate (%)=(C−T)/(C−C0)×100
(§4) T: Luminescence intensity of well to which test compound was added
(§5) C: Luminescence intensity of well to which test compound was not added
(§6) C0: Luminescence intensity of well measured before addition of test compound

[2] = tested on: lung adenocarcinoma cell line HCC827 expressing EGFR (d746-750); test: Growth inhibitory activity, EGFR (d746-750)-expressing cell line; format: cell-based; conditions: Homo sapiens, HCC827, 72 h; three days culture, CellTiter-Glo
Description: as §3, with “Then, the cells were cultured in an incubator containing 5% carbon dioxide gas at 37° C. for three days.” left out, “The cell growth inhibition rate was calculated by the following formula, and the concentration of the test compound at which the cell growth was inhibited by 50% (GI50 (nM)) was determined. Growth inhibition rate (%)=(C−T)/(C−C0)×100” left out
as §4, §5, §6

[3] = tested on: human epidermoid carcinoma cell line A431 expressing EGFR (WT); test: Growth inhibitory activity, EGFR (WT)-expressing cell line; format: cell-based; conditions: for GI50: Homo sapiens, A-431, 72 h, three days culture, CellTiter-Glo; for growth-inhibitory activities for EGFR (WT)-expressing cells compared with cells expressing mutant EGFRs, in words: summary of Table 2
Description: as §3, §4, §5, §6

T1 sequence (P00533 25-1210 T790M/L858R): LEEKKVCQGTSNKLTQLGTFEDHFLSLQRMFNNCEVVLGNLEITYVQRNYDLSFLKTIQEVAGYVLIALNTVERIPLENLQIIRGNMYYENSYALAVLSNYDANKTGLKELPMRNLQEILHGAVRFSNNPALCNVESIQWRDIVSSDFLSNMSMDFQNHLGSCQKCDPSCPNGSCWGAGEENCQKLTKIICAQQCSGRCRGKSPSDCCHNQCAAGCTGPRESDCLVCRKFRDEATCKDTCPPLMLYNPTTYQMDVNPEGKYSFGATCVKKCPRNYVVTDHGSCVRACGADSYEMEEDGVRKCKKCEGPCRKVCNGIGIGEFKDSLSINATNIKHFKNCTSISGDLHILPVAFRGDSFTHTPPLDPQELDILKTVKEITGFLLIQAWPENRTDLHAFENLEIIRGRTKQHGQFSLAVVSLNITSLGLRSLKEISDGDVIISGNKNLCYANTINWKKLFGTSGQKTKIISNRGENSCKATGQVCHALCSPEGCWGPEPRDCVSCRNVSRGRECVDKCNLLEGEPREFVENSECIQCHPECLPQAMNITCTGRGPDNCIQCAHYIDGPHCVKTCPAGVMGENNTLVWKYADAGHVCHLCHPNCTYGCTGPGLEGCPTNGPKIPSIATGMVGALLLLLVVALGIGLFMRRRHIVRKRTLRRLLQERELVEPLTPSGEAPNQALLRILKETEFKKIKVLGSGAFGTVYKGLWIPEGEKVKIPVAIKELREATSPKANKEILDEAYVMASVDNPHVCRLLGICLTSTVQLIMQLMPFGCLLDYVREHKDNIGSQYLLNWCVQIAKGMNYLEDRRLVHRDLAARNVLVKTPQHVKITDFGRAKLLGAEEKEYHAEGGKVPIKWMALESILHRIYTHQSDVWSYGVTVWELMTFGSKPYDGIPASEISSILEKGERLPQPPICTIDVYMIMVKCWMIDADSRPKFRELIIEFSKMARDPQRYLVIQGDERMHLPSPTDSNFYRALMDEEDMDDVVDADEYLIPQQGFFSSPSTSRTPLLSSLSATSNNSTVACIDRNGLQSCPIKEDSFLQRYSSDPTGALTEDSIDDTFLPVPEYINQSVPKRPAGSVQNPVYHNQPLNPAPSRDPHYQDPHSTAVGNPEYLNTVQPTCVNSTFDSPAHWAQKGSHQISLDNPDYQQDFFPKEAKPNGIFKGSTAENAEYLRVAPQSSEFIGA
T5 sequence (P00533 669-1210 limits assumed): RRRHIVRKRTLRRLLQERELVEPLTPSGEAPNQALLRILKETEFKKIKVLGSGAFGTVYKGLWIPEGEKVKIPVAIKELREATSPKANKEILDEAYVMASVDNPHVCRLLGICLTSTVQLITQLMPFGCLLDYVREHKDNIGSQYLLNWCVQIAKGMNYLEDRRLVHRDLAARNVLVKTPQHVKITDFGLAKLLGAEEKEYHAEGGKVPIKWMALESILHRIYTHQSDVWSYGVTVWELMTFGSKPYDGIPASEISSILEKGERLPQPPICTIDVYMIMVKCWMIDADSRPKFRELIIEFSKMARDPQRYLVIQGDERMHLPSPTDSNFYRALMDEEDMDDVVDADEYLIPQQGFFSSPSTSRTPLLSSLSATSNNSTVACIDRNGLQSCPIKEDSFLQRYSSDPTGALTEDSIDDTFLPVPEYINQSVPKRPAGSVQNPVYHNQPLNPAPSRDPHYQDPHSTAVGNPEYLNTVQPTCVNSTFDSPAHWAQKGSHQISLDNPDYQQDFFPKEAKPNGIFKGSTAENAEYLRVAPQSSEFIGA
T3 sequence (P00533 25-1210 L858R): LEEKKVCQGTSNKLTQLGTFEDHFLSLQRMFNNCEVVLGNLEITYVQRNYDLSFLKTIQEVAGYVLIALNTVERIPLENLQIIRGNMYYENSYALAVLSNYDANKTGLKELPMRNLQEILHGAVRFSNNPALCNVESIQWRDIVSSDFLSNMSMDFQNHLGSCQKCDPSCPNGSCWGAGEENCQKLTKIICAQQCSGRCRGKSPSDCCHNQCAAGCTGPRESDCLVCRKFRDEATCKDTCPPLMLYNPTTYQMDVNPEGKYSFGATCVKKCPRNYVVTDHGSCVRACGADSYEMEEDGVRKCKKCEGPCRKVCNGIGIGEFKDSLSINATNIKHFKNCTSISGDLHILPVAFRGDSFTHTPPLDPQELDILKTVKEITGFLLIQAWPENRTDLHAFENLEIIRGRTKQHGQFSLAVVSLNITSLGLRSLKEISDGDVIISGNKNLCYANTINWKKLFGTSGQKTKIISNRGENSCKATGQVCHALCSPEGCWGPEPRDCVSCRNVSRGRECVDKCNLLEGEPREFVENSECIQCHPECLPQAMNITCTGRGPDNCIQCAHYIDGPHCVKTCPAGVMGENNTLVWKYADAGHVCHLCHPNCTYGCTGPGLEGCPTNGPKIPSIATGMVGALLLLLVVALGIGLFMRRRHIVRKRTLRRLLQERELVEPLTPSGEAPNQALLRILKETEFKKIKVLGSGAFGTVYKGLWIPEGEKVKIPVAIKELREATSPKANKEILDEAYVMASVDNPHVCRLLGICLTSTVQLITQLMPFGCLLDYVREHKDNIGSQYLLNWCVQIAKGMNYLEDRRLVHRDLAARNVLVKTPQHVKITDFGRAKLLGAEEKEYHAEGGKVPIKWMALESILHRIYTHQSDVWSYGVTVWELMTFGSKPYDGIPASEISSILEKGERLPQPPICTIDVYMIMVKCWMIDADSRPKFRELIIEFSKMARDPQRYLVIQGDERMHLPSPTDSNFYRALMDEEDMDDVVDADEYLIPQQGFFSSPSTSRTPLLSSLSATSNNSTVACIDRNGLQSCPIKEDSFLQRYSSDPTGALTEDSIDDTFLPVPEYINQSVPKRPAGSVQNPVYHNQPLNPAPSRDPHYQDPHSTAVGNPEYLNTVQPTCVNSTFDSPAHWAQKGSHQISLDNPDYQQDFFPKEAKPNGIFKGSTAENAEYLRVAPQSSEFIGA
T2 sequence (P00533 with tags, fused parts or gaps DEL746-750/T790M limits assumed): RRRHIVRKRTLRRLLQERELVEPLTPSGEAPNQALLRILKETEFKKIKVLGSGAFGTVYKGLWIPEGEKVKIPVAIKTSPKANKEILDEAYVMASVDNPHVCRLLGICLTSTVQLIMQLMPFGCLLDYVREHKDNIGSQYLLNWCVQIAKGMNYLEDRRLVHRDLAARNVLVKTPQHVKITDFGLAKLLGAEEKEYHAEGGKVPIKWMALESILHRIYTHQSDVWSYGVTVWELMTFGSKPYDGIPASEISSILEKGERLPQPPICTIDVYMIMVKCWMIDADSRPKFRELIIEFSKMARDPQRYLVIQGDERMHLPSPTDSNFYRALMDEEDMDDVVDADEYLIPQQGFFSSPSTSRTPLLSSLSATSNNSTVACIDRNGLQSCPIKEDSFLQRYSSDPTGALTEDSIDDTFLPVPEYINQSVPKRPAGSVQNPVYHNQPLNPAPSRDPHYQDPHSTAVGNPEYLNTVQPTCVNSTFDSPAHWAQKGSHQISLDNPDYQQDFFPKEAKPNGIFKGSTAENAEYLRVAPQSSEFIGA
T4 sequence (P00533 with tags, fused parts or gaps DEL746-750 limits assumed): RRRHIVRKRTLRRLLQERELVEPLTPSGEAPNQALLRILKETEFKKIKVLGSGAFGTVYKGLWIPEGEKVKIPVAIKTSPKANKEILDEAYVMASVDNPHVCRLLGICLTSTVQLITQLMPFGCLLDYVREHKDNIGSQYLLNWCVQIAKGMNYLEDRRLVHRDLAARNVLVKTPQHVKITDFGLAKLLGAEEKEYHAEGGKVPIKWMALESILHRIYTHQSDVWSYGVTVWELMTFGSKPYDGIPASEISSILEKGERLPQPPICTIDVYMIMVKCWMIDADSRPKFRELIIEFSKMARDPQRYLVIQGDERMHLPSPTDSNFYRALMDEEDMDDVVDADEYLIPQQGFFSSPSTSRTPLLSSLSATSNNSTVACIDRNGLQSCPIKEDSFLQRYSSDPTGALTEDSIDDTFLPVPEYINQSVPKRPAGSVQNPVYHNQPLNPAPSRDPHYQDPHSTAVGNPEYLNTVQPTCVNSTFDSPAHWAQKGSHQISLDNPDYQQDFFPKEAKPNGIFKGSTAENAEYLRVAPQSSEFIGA

Row | Structure (SMILES) | IC50 (EGFR (T790M/L858R)) [nM] | inhibitory activities for EGFR (L858R), EGFR (d746-750), EGFR (T790M/L858R) and EGFR (d746-750/T790M), in words (EGFR (T790M/L858R)) | IC50 (EGFR (d746-750/T790M)) [nM] | IC50 (EGFR (L858R)) [nM] | IC50 (EGFR (d746-750)) [nM] | IC50 (EGFR (WT)) [nM] | inhibitory activities for EGFR (WT) compared with the mutant EGFR proteins, in words (EGFR (WT)) | GI50 [1] [nM] | growth-inhibitory activities for EGFR (d746-750)-expressing and EGFR (T790M/L858R)-expressing cells, in words [1] | GI50 [2] [nM] | GI50 [3] [nM] | growth-inhibitory activities for EGFR (WT)-expressing cells compared with cells expressing mutant EGFRs, in words [3]
1 | C=CC(=O)N(C)C1CCc2c(-c3cnc4ccccc4c3)c3c(N)ncnc3n2C1 (stereo not drawn) [Compound I-3, N-(4-amino-5-(quinolin-3-yl)-6,7,8,9-tetrahydropyrimido[5,4-b]indolizin-8-yl)-N-methylacrylamide] | 1.3 | potent inhibitory activities | 0.6 | 1.3 | 1 | 18 | lower than those for the above mutant EGFR proteins | 86 | potent growth-inhibitory activities | 10 | 1800 | weaker growth-inhibitory activities
2 | C=CC(=O)N[C@H]1CCc2c(-c3cnc4ccccc4c3)c3c(N)ncnc3n2C1 (single isomer, unassigned) [Compound I-2] | 0.3 | potent inhibitory activities | 0.2 | 0.4 | 0.4 | 4.3 | lower than those for the above mutant EGFR proteins | 27 | potent growth-inhibitory activities | 5 | 590 | weaker growth-inhibitory activities

Source: patent publication US8889666B2, “Quinolyl pyrrolo pyrimidyl condensed-ring compound and salt thereof” (Taiho Pharmaceutical Co., Ltd., priority 2012, dated 2014)
